In PubChem BioAssay AID1259407 (Chemical Carcinogenesis Research Information System (CCRIS), 2018):
Activity calls are given as the source filed them. The rule behind the calls is not given here.

Tested on: CCRIS mutagenicity, Ames/micronucleus/aberration tests
Test: CCRIS mutagenicity studies
[1] = Test System: AMES SALMONELLA TYPHIMURIUM, Strain/Indicator: TA97, Metabolic Activation: NONE, Method: PREINCUBATION
[2] = Test System: AMES SALMONELLA TYPHIMURIUM, Strain/Indicator: TA98, Metabolic Activation: NONE, Method: PREINCUBATION
[3] = Test System: AMES SALMONELLA TYPHIMURIUM, Strain/Indicator: TA100, Metabolic Activation: NONE, Method: PREINCUBATION
[4] = Test System: AMES SALMONELLA TYPHIMURIUM, Strain/Indicator: TA98, Metabolic Activation: NONE, Method: STANDARD PLATE
[5] = Test System: AMES SALMONELLA TYPHIMURIUM, Strain/Indicator: TA100, Metabolic Activation: NONE, Method: STANDARD PLATE
[6] = Test System: AMES SALMONELLA TYPHIMURIUM, Strain/Indicator: TA102, Metabolic Activation: NONE, Method: PREINCUBATION

Measured: mutagenic call

CC(CCl)OP(=O)(OC(C)CCl)OC(C)CCl (stereo not drawn)
inactive: Test System: AMES SALMONELLA TYPHIMURIUM, Strain/Indicator: TA97, Metabolic Activation: HAMSTER, LIVER, S-9, AROCLOR 1254 (10%), Method: PREINCUBATION inactive; negative | Test System: AMES SALMONELLA TYPHIMURIUM, Strain/Indicator: TA97, Metabolic Activation: HAMSTER, LIVER, S-9, AROCLOR 1254 (30%), Method: PREINCUBATION inactive; negative | [1] inactive; negative | Test System: AMES SALMONELLA TYPHIMURIUM, Strain/Indicator: TA97, Metabolic Activation: RAT, LIVER, S-9, AROCLOR 1254 (10%), Method: PREINCUBATION inactive; negative | Test System: AMES SALMONELLA TYPHIMURIUM, Strain/Indicator: TA97, Metabolic Activation: RAT, LIVER, S-9, AROCLOR 1254 (30%), Method: PREINCUBATION inactive; negative | Test System: AMES SALMONELLA TYPHIMURIUM, Strain/Indicator: TA98, Metabolic Activation: HAMSTER, LIVER, S-9, AROCLOR 1254 (10%), Method: PREINCUBATION inactive; negative | Test System: AMES SALMONELLA TYPHIMURIUM, Strain/Indicator: TA98, Metabolic Activation: HAMSTER, LIVER, S-9, AROCLOR 1254 (30%), Method: PREINCUBATION inactive; negative | [2] inactive; negative | Test System: AMES SALMONELLA TYPHIMURIUM, Strain/Indicator: TA98, Metabolic Activation: RAT, LIVER, S-9, AROCLOR 1254 (10%), Method: PREINCUBATION inactive; negative | Test System: AMES SALMONELLA TYPHIMURIUM, Strain/Indicator: TA98, Metabolic Activation: RAT, LIVER, S-9, AROCLOR 1254 (30%), Method: PREINCUBATION inactive; negative | Test System: AMES SALMONELLA TYPHIMURIUM, Strain/Indicator: TA100, Metabolic Activation: HAMSTER, LIVER, S-9, AROCLOR 1254 (10%), Method: PREINCUBATION inactive; negative | Test System: AMES SALMONELLA TYPHIMURIUM, Strain/Indicator: TA100, Metabolic Activation: HAMSTER, LIVER, S-9, AROCLOR 1254 (30%), Method: PREINCUBATION inactive; negative | [3] inactive; negative | Test System: AMES SALMONELLA TYPHIMURIUM, Strain/Indicator: TA100, Metabolic Activation: RAT, LIVER, S-9, AROCLOR 1254 (10%), Method: PREINCUBATION inactive; negative | Test System: AMES SALMONELLA TYPHIMURIUM, Strain/Indicator: TA100, Metabolic Activation: RAT, LIVER, S-9, AROCLOR 1254 (30%), Method: PREINCUBATION inactive; negative | Test System: AMES SALMONELLA TYPHIMURIUM, Strain/Indicator: TA1535, Metabolic Activation: HAMSTER, LIVER, S-9, AROCLOR 1254 (10%), Method: PREINCUBATION inactive; negative | Test System: AMES SALMONELLA TYPHIMURIUM, Strain/Indicator: TA1535, Metabolic Activation: HAMSTER, LIVER, S-9, AROCLOR 1254 (30%), Method: PREINCUBATION inactive; negative | Test System: AMES SALMONELLA TYPHIMURIUM, Strain/Indicator: TA1535, Metabolic Activation: NONE, Method: PREINCUBATION inactive; negative | Test System: AMES SALMONELLA TYPHIMURIUM, Strain/Indicator: TA1535, Metabolic Activation: RAT, LIVER, S-9, AROCLOR 1254 (5 OR 30%), Method: PREINCUBATION inactive; negative | Test System: AMES SALMONELLA TYPHIMURIUM, Strain/Indicator: TA1535, Metabolic Activation: RAT, LIVER, S-9, AROCLOR 1254 (10%), Method: PREINCUBATION inactive; negative | Test System: AMES SALMONELLA TYPHIMURIUM, Strain/Indicator: TA1537, Metabolic Activation: HAMSTER, LIVER, S-9, AROCLOR 1254 (30%), Method: PREINCUBATION inactive; negative | Test System: AMES SALMONELLA TYPHIMURIUM, Strain/Indicator: TA1537, Metabolic Activation: NONE, Method: PREINCUBATION inactive; negative | Test System: AMES SALMONELLA TYPHIMURIUM, Strain/Indicator: TA1537, Metabolic Activation: RAT, LIVER, S-9, AROCLOR 1254 (30%), Method: PREINCUBATION inactive; negative

O=C(Nc1cccc(Br)c1)c1csc([N+](=O)[O-])c1
active: [4] active; positive | [5] active; positive

C=CC(=O)OCCOC1CC2CC1C1CC=CC21 (stereo not drawn)
active: Test System: MOUSE LYMPHOMA, Strain/Indicator: L5178Y (TK+/TK-), Metabolic Activation: NONE, Method: SUSPENSION/PLATE active; positive

Fc1cccc2c1ccc1cccnc12
active: Test System: AMES SALMONELLA TYPHIMURIUM, Strain/Indicator: TA100, Metabolic Activation: RAT, LIVER, S-9, PHENOBARBITAL AND 5,6-BENZOFLAVONE, Method: PREINCUBATION active; positive

O=C1O[C@H]([C@H](O)CO)C(O)=C1O
inactive: End Point: IN VIVO MICRONUCLEUS, Test System: BONE MARROW POLYCHROMATIC ERYTHROCYTES, Species: MOUSE, Strain/Sex: DDY/MALE, Route: IP inactive; negative | [1] inactive; negative | Test System: AMES SALMONELLA TYPHIMURIUM, Strain/Indicator: TA97, Metabolic Activation: RAT, LIVER, S-9, AROCLOR 1254, Method: PREINCUBATION inactive; negative | [6] inactive; negative | Test System: AMES SALMONELLA TYPHIMURIUM, Strain/Indicator: TA102, Metabolic Activation: RAT, LIVER, S-9, AROCLOR 1254, Method: PREINCUBATION inactive; negative

O=c1oc2ccc([N+](=O)[O-])c3ccc4cccc1c4c23
inactive: Test System: AMES SALMONELLA TYPHIMURIUM, Strain/Indicator: TA98(1,8-DNP6), Metabolic Activation: RAT, LIVER, S-9, AROCLOR 1254, Method: PREINCUBATION inactive; negative
active: Test System: AMES SALMONELLA TYPHIMURIUM, Strain/Indicator: TA98(1,8-DNP6), Metabolic Activation: NONE, Method: PREINCUBATION active; positive | Test System: AMES SALMONELLA TYPHIMURIUM, Strain/Indicator: TA98(NR), Metabolic Activation: NONE, Method: PREINCUBATION active; positive | Test System: AMES SALMONELLA TYPHIMURIUM, Strain/Indicator: TA98(NR), Metabolic Activation: RAT, LIVER, S-9, AROCLOR 1254, Method: PREINCUBATION active; positive | [2] active; positive | Test System: AMES SALMONELLA TYPHIMURIUM, Strain/Indicator: TA98, Metabolic Activation: RAT, LIVER, S-9, AROCLOR 1254, Method: PREINCUBATION active; positive | [3] active; positive | Test System: AMES SALMONELLA TYPHIMURIUM, Strain/Indicator: TA100, Metabolic Activation: RAT, LIVER, S-9, AROCLOR 1254, Method: PREINCUBATION active; positive

CN(C)CCNC(=O)c1cc2ccccc2c2cccnc12
active: Test System: AMES SALMONELLA TYPHIMURIUM, Strain/Indicator: TA1537, Metabolic Activation: NONE, Method: STANDARD PLATE active; positive

Cc1c(N)nc([C@H](CC(N)=O)NC[C@H](N)C(N)=O)nc1C(=O)N[C@H](C(=O)N[C@H](C)[C@@H](O)[C@H](C)C(=O)N[C@H](C(=O)NCCc1nc(-c2nc(C(=O)NCCCN(C)CCCN=C(N)CC3CCC(Cl)CC3)cs2)cs1)[C@@H](C)O)[C@@H](O[C@@H]1O[C@@H](CO)[C@@H](O)[C@H](O)[C@@H]1O[C@H]1O[C@H](CO)[C@@H](O)[C@H](OC(N)=O)[C@@H]1O)c1cnc[nH]1 (stereo partly drawn)
active: Test System: AMES SALMONELLA TYPHIMURIUM, Strain/Indicator: TA94, Metabolic Activation: NONE, Method: PREINCUBATION active; positive | [6] active; positive

COc1ccc2c(c1O)C(=O)c1ccccc1C2=O
inactive: [2] inactive; negative | Test System: AMES SALMONELLA TYPHIMURIUM, Strain/Indicator: TA98, Metabolic Activation: RAT, LIVER, S-9, PCB, Method: PREINCUBATION inactive; negative | [3] inactive; negative | Test System: AMES SALMONELLA TYPHIMURIUM, Strain/Indicator: TA100, Metabolic Activation: RAT, LIVER, S-9, PCB, Method: PREINCUBATION inactive; negative

C/C=C/C=C/CCCCCCCO
inactive: [4] inactive; negative | Test System: AMES SALMONELLA TYPHIMURIUM, Strain/Indicator: TA98, Metabolic Activation: RAT, LIVER, S-9, Method: STANDARD PLATE inactive; negative | [5] inactive; negative | Test System: AMES SALMONELLA TYPHIMURIUM, Strain/Indicator: TA100, Metabolic Activation: RAT, LIVER, S-9, Method: STANDARD PLATE inactive; negative | Test System: AMES SALMONELLA TYPHIMURIUM, Strain/Indicator: TA102, Metabolic Activation: NONE, Method: STANDARD PLATE inactive; negative | Test System: AMES SALMONELLA TYPHIMURIUM, Strain/Indicator: TA102, Metabolic Activation: RAT, LIVER, S-9, Method: STANDARD PLATE inactive; negative
